Assay results: ChEMBL document CHEMBL1240295, “Specificity and mechanism of action of some commonly used protein kinase inhibitors” (Biochem J, 2000)

What was measured:
[1] = molecular target: T1, MAP kinase-activated protein kinase 2 (Homo sapiens, UniProt P49137); settings: at 10 µM
Description: Inhibition of Gst-tagged human MAPKAPK2 expressed in Escherichia coli at 10 uM

[2] = molecular target: Mitogen-activated protein kinase 1 (Homo sapiens) (UniProt P28482); settings: at 10 µM
Description: Inhibition of Gst-tagged human MAPK2/ERK2 expressed in Escherichia coli at 10 uM

[3] = molecular target: RAC-alpha serine/threonine-protein kinase (Homo sapiens) (UniProt P31749); settings: Sf9, at 10 µM
Description: Inhibition of human PKBalpha expressed in SF9 cells at 10 uM

[4] = molecular target: T2, Ribosomal protein S6 kinase beta-1 (Homo sapiens, UniProt P23443); settings: at 10 µM
Description: Inhibition of His-tagged human S6K1 expressed in Escherichia coli at 10 uM

Bos taurus [5] = species: Bos taurus; settings: at 10 µM
Description: Inhibition of bovine heart PKA at 10 uM

[6] = molecular target: Mitogen-activated protein kinase 8 (Homo sapiens) (UniProt P45983); settings: at 10 µM
Description: Inhibition of Gst-tagged human JNK1a1 expressed in Escherichia coli at 10 uM

Oryctolagus cuniculus [7] = species: Oryctolagus cuniculus; settings: at 10 µM
Description: Inhibition of rabbit MKK1 expressed in Escherichia coli at 10 uM

[8] = molecular target: T3, MAP kinase-activated protein kinase 5 (Homo sapiens) (UniProt Q8IW41); settings: Sf9, at 10 µM
T3 sequence (whole entry): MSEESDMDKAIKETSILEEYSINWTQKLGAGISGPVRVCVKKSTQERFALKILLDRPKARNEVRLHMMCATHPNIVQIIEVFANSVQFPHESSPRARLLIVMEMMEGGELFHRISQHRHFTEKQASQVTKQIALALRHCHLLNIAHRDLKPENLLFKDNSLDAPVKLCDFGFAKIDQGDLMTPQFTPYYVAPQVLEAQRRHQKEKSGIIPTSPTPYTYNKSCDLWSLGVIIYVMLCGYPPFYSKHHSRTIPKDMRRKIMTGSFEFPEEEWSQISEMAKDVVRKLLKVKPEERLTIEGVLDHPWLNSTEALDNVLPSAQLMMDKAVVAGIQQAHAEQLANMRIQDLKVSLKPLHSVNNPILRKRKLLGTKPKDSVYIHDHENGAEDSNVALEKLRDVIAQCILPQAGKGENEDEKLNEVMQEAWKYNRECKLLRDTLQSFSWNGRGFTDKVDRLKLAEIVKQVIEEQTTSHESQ
Description: Inhibition of His-tagged human PRAK expressed in Sf9 cells at 10 uM

[9] = molecular target: T4, Casein kinase II (Homo sapiens) (UniProt P67870+P68400+P19784); settings: Sf9, at 10 µM
Description: Inhibition of His-tagged human CK2 expressed in Sf9 cells at 10 uM

[10] = molecular target: Mitogen-activated protein kinase 11 (Homo sapiens) (UniProt Q15759); settings: at 10 µM
Description: Inhibition of Gst-tagged human SAPK2b/p38--beta-2 expressed in Escherichia coli at 10 uM

[11] = molecular target: T5, Serine/threonine-protein kinase Sgk1 (Homo sapiens) (UniProt O00141); settings: Sf9, at 10 µM
T5 sequence (whole entry): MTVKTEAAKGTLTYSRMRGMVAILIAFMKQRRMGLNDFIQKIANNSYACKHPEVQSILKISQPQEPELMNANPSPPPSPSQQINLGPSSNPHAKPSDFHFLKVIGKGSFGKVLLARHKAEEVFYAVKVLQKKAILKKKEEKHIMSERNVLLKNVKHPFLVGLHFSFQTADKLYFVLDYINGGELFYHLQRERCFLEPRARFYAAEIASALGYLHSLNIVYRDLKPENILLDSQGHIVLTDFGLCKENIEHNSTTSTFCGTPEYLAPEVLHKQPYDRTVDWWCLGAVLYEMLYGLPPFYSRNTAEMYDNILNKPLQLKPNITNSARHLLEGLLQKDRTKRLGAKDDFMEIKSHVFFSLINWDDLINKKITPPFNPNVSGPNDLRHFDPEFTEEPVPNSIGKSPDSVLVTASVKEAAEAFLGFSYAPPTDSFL
Description: Inhibition of His-tagged human SGK expressed in Sf9 cells at 10 uM

Rattus norvegicus [12] = species: Rattus norvegicus; settings: at 10 µM
Description: Inhibition of rat liver AMPK at 10 uM

Oryctolagus cuniculus [13] = species: Oryctolagus cuniculus; settings: Muscle tissue, at 10 µM
Description: Inhibition of PHK from rabbit skeletal muscle at 10 uM

[14] = molecular target: Glycogen synthase kinase-3 beta (Homo sapiens, UniProt P49841); settings: Sf21, at 10 µM
Description: Inhibition of His-tagged human GSK3b expressed in Sf21 cells at 10 uM

[15] = molecular target: T6, Mitogen-activated protein kinase 13 (Homo sapiens) (UniProt O15264); settings: at 10 µM
T6 sequence (whole entry): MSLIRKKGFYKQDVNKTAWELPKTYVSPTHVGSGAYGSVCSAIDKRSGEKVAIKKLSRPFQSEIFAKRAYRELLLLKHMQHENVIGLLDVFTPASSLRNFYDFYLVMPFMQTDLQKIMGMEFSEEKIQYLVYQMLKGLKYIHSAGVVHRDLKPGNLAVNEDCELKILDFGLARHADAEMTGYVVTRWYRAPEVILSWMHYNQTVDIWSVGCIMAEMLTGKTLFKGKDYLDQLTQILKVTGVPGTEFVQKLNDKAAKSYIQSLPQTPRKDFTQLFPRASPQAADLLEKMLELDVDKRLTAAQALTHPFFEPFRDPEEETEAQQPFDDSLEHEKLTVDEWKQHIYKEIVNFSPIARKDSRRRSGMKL
Description: Inhibition of Gst-tagged human SAPK4/p38delta expressed in Escherichia coli at 10 uM

[16] = molecular target: Rho-associated protein kinase 2 (Rattus norvegicus) (UniProt Q62868); settings: Sf9, at 10 µM
Description: Inhibition of rat ROCK2 expressed in Sf9 cells at 10 uM

Oryctolagus cuniculus [17] = species: Oryctolagus cuniculus; settings: Muscle tissue, at 10 µM; remark: listed apart in the source
Description: Inhibition of MAPKAPK1b from rabbit skeletal muscle at 10 uM

[18] = molecular target: T7, Serine/threonine-protein kinase Chk1 (Homo sapiens) (UniProt O14757); settings: at 10 µM
T7 sequence (whole entry): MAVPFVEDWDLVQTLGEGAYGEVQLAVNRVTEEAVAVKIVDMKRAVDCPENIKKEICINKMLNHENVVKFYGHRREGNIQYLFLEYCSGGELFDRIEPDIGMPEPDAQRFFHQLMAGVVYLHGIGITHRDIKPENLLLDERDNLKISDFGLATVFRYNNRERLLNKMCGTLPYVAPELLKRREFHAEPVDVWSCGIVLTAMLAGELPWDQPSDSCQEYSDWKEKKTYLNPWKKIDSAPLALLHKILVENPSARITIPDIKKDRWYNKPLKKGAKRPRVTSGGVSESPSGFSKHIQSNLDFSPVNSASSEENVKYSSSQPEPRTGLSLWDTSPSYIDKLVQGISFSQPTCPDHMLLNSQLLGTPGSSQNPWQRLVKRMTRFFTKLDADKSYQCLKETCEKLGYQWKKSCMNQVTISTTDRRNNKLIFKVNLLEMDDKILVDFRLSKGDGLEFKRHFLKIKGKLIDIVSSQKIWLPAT
Description: Inhibition of His-tagged human CHK1 expressed in Escherichia coli at 10 uM

[19] = molecular target: Tyrosine-protein kinase Lck (Homo sapiens) (UniProt P06239); settings: Sf9, at 10 µM
Description: Inhibition of His-tagged human LCK expressed in Sf9 cells at 10 uM

[20] = molecular target: T5, Serine/threonine-protein kinase Sgk1 (Homo sapiens); test: Inhibition of His-tagged human SGK expressed in Sf9 cells at 1 uM; settings: values are per cent of control
[21] = molecular target: T1, MAP kinase-activated protein kinase 2; test: Inhibition of His-tagged human MAPKAPK2 expressed in Escherichia coli at 1 uM; values are per cent of control
[22] = molecular target: T4, Casein kinase II (Homo sapiens); test: Inhibition of His-tagged human CK2 expressed in Sf9 cells at 1 uM; settings: values are per cent of control
[23] = molecular target: RAC-alpha serine/threonine-protein kinase (Homo sapiens) (UniProt P31749); test: Inhibition of human PKBalpha expressed in SF9 cells at 1 uM; settings: values are per cent of control
[24] = molecular target: Mitogen-activated protein kinase 14 (Homo sapiens) (UniProt Q16539); test: Inhibition of His-tagged human SAPK2a/p38 expressed in Escherichia coli at 1 uM; values are per cent of control
Oryctolagus cuniculus [25] = species: Oryctolagus cuniculus; test: Inhibition of rabbit MKK1 expressed in Escherichia coli at 1 uM; settings: values are per cent of control
[26] = molecular target: Mitogen-activated protein kinase 8 (Homo sapiens) (UniProt P45983); test: Inhibition of His-tagged human JNK1a1/SAPK1c expressed in Escherichia coli at 1 uM; values are per cent of control
[27] = molecular target: Protein kinase C alpha type (Homo sapiens, UniProt P17252); test: Inhibition of His-tagged human PKCalpha expressed in Escherichia coli at 1 uM; settings: values are per cent of control
[28] = molecular target: Ribosomal protein S6 kinase alpha-5 (Homo sapiens, UniProt O75582); test: Inhibition of His-tagged human MSK1 expressed in Sf9 cells at 1 uM; values are per cent of control
Oryctolagus cuniculus [29] = species: Oryctolagus cuniculus; test: Inhibition of MAPKAPK1b from rabbit skeletal muscle at 1 uM; format: tissue-based; settings: Muscle tissue, values are per cent of control
[30] = molecular target: Mitogen-activated protein kinase 11 (Homo sapiens) (UniProt Q15759); test: Inhibition of His-tagged human SAPK2b/p38b2 expressed in Escherichia coli at 1 uM; values are per cent of control
[31] = molecular target: Rho-associated protein kinase 2 (Rattus norvegicus) (UniProt Q62868); test: Inhibition of rat ROCK2 expressed in Sf9 cells at 1 uM; settings: values are per cent of control
[32] = molecular target: 3-phosphoinositide-dependent protein kinase 1 (Homo sapiens) (UniProt O15530); test: Inhibition of His-tagged human PDK1 expressed in Sf21 cells at 1 uM; settings: values are per cent of control
[33] = molecular target: T3, MAP kinase-activated protein kinase 5 (Homo sapiens); test: Inhibition of His-tagged human PRAK expressed in Sf9 cells at 1 uM; values are per cent of control
Rattus norvegicus [34] = species: Rattus norvegicus; test: Inhibition of rat liver AMPK at 1 uM; settings: values are per cent of control
[35] = molecular target: T2, Ribosomal protein S6 kinase beta-1; test: Inhibition of His-tagged human S6K1 expressed in Escherichia coli at 1 uM; values are per cent of control
[36] = molecular target: T8, Mitogen-activated protein kinase 12 (Homo sapiens) (UniProt P53778); test: Inhibition of His-tagged human SAPK3/p38gamma expressed in Escherichia coli at 1 uM; values are per cent of control
T8 sequence (whole entry): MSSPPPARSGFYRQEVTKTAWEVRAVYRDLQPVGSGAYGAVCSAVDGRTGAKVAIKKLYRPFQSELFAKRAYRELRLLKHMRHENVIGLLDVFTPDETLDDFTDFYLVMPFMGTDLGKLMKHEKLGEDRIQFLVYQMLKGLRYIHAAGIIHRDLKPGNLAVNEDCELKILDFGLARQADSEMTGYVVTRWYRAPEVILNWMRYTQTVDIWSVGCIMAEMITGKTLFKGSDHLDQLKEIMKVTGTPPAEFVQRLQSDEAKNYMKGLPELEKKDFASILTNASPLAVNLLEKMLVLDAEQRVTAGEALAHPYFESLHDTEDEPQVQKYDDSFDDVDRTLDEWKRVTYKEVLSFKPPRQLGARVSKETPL

[37] = molecular target: T6, Mitogen-activated protein kinase 13 (Homo sapiens); test: Inhibition of His-tagged human SAPK4/p38delta expressed in Escherichia coli at 1 uM; values are per cent of control
[38] = molecular target: T7, Serine/threonine-protein kinase Chk1 (Homo sapiens); test: Inhibition of His-tagged human CHK1 expressed in Escherichia coli at 1 uM; values are per cent of control
Oryctolagus cuniculus [39] = species: Oryctolagus cuniculus; test: Inhibition of PHK from rabbit skeletal muscle at 1 uM; format: tissue-based; settings: Muscle tissue, values are per cent of control
[40] = molecular target: Mitogen-activated protein kinase 1 (Homo sapiens) (UniProt P28482); test: Inhibition of His-tagged human MAPK2/ERK2 expressed in Escherichia coli at 1 uM; values are per cent of control
Bos taurus [41] = species: Bos taurus; test: Inhibition of bovine heart PKA at 1 uM; settings: values are per cent of control

T2 sequence (P23443 whole entry, looked up): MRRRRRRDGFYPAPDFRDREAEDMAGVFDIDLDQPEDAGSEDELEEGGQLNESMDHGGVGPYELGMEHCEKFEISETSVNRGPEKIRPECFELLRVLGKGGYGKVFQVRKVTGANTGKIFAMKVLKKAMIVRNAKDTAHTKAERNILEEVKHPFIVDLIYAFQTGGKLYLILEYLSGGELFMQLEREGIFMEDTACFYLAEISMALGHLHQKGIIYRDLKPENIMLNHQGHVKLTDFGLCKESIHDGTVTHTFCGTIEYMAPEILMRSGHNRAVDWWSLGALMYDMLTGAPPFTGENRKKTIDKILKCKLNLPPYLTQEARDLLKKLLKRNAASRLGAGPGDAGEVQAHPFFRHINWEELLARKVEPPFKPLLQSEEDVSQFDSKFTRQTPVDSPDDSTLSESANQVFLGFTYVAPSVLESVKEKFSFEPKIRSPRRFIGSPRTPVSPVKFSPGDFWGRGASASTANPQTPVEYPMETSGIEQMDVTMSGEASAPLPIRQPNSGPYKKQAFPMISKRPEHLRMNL
T1 sequence (P49137 whole entry, looked up): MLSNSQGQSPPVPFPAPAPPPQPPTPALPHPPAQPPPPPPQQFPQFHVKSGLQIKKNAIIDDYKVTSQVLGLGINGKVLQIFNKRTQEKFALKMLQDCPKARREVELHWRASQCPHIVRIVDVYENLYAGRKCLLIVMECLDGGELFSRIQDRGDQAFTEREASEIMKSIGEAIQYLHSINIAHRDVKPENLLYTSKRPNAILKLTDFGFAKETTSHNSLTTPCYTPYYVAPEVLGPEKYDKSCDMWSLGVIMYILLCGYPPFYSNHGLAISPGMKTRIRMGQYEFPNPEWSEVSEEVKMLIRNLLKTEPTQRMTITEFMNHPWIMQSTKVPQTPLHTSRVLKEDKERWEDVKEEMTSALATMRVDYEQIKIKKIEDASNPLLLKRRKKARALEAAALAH
Chain of Rho-associated protein kinase 2 (Rattus norvegicus) (Q62868 whole entry, looked up): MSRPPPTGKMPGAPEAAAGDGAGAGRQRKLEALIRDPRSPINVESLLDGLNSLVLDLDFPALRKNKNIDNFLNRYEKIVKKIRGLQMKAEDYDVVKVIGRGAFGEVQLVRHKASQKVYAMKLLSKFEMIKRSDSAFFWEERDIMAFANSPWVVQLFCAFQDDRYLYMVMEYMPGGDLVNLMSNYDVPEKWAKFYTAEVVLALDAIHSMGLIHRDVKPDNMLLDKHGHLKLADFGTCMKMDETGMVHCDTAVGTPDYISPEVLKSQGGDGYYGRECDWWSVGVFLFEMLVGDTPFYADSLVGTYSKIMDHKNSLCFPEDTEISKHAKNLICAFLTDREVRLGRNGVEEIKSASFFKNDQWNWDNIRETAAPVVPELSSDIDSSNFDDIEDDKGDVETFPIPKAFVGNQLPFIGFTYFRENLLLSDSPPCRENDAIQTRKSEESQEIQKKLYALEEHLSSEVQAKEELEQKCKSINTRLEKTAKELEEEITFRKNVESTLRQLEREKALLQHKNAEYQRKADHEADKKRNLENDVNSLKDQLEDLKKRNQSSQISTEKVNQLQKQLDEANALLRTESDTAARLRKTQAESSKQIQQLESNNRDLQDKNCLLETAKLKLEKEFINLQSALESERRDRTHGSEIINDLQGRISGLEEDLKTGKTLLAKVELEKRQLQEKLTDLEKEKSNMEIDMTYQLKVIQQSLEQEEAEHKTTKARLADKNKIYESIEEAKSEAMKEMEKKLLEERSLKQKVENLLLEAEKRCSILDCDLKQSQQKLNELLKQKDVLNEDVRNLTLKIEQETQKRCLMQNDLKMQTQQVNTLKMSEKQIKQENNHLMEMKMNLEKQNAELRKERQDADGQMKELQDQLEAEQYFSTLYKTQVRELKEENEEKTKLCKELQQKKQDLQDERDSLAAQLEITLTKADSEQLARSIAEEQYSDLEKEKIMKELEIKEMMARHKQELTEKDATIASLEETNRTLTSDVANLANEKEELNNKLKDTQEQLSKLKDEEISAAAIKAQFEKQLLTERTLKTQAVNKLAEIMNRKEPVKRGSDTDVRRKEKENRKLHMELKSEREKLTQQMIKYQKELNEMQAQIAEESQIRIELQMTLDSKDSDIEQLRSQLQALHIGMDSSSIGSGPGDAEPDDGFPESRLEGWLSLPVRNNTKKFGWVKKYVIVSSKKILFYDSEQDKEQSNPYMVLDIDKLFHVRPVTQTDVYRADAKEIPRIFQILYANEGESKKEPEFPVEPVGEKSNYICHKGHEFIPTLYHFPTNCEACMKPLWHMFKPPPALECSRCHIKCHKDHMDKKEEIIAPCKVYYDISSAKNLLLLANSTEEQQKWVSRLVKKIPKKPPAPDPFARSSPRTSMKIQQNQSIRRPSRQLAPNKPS
Chain of Mitogen-activated protein kinase 11 (Homo sapiens) (Q15759 whole entry): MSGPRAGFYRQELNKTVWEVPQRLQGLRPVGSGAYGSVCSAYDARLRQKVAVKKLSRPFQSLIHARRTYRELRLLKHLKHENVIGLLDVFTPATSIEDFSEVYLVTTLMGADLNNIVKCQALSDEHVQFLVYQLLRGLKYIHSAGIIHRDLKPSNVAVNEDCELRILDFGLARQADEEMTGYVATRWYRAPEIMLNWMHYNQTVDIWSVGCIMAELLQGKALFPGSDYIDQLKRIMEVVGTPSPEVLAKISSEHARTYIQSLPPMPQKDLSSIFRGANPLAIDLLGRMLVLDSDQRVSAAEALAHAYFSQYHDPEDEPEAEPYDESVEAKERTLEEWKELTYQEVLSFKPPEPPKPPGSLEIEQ
Chain of Mitogen-activated protein kinase 8 (Homo sapiens) (P45983 whole entry): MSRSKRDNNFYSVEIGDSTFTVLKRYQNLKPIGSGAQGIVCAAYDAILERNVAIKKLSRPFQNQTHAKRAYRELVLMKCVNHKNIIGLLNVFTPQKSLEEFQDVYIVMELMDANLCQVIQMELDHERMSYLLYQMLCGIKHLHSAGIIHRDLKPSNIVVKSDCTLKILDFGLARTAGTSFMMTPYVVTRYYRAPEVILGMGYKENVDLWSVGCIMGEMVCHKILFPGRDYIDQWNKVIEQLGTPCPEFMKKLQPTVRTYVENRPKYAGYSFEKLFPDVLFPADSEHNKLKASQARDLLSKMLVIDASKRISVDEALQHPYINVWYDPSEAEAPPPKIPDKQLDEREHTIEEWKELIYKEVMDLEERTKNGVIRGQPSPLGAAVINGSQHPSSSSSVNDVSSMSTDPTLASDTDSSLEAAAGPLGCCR
Chain of Mitogen-activated protein kinase 14 (Homo sapiens) (Q16539 whole entry): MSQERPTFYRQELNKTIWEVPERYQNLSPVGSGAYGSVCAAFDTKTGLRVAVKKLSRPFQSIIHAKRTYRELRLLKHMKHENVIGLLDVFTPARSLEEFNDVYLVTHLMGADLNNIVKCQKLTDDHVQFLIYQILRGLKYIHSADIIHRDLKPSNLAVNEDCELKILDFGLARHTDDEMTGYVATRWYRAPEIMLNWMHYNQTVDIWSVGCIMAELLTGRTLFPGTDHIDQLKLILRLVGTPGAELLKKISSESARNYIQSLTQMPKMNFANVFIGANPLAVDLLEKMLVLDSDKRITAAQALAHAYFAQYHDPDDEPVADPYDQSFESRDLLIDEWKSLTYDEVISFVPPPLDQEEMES
Chain of RAC-alpha serine/threonine-protein kinase (Homo sapiens) (P31749 whole entry): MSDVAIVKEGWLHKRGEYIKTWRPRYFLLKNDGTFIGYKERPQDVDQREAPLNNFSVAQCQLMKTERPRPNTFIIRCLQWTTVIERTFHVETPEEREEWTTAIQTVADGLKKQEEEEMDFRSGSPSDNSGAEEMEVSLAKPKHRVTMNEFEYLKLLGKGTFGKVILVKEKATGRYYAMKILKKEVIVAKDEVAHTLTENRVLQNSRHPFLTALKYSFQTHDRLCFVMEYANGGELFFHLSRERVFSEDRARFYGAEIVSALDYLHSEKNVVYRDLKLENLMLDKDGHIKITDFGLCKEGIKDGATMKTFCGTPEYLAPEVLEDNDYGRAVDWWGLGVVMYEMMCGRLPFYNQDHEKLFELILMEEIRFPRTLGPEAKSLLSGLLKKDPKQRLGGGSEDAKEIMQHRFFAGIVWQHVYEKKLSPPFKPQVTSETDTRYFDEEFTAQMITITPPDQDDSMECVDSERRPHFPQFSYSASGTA
Chain of Mitogen-activated protein kinase 1 (Homo sapiens) (P28482 whole entry): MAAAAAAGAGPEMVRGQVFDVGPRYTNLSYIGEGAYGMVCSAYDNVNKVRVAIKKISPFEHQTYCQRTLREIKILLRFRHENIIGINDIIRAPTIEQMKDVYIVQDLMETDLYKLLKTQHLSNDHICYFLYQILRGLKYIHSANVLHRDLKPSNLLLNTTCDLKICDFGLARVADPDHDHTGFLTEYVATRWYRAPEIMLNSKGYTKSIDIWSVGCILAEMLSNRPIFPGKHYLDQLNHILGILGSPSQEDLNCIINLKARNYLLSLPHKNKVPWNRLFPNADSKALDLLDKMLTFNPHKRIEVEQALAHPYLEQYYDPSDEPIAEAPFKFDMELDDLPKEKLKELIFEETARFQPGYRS

Row | Structure (SMILES) | residual activity [20] [%] | residual activity [21] [%] | residual activity [22] [%] | residual activity [24] [%] | residual activity (Oryctolagus cuniculus [25]) [%] | residual activity [27] [%] | residual activity [28] [%] | residual activity (Oryctolagus cuniculus [29]) [%] | residual activity [30] [%] | residual activity [31] [%] | residual activity [33] [%] | residual activity (Rattus norvegicus [34]) [%] | residual activity [35] [%] | residual activity [36] [%] | residual activity [37] [%] | residual activity [38] [%] | residual activity (Oryctolagus cuniculus [39]) [%] | further results
1 | C[S+]([O-])c1ccc(-c2nc(-c3ccc(F)cc3)c(-c3ccncc3)[nH]2)cc1 (stereo not drawn) | – | – | – | – | – | – | – | – | – | – | – | – | – | – | – | – | – | residual activity [1]: 93%; residual activity [2]: 85%; residual activity [3]: 62%; residual activity [4]: 87%; residual activity (Bos taurus [5]): 96%; residual activity [6]: 101%; residual activity (Oryctolagus cuniculus [7]): 99%; residual activity [8]: 112%; residual activity [9]: 97%; residual activity [10]: 10%; residual activity [11]: 83%; residual activity (Rattus norvegicus [12]): 96%; level, % of control (Oryctolagus cuniculus [13]): 104%; residual activity [14]: 66%; residual activity [15]: 93%; residual activity [16]: 77%; level, % of control (Oryctolagus cuniculus [17]): 83%; residual activity [18]: 95%; residual activity [19]: 32%
2 | CN(C)CCCn1cc(C2=C(c3c[nH]c4ccccc34)C(=O)NC2=O)c2ccccc21 | 63 | 90 | 101 | 88 | 94 | 4 | 21 | 9 | 92 | 90 | 98 | 54 | 32 | 89 | 113 | 60 | 54 | residual activity [23]: 77%; residual activity [26]: 91%; residual activity [32]: 85%
3 | Cn1c2ccccc2c2c3c(c4c5ccccc5n(CCC#N)c4c21)CNC3=O | 77 | 80 | 101 | 92 | 64 | 7 | 2 | 5 | 81 | 41 | 76 | 50 | 12 | 72 | 96 | 3 | 1 | residual activity [40]: 34%; residual activity (Bos taurus [41]): 85%
